In general, GI50 refers to the concentration at which growth is held to half of that of the control. In general, TGI refers to the concentration at which net growth stops.

Here are results for eight compounds from PubChem BioAssay (NCI).

Molecules are shown by their SMILES.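 Cells were grown in 96-well plates and exposed to each compound for 48 hours at five concentrations; endpoints were interpolated linearly between bracketing concentrations, or set to the highest concentration if not reached. GI50 marks 50% less growth. TGI marks complete inhibition of growth.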 Some results are limits rather than exact numbers.

Among the test systems are ACHN renal; DU-145 prostate; HCT-116 colon; HS 578T breast; LOX IMVI melanoma; MOLT-4 leukemia; NCI/ADR-RES ovarian; SF-295 CNS; SNB-75 CNS; U251 CNS.
Experiment in all cases: DTP human tumour cell line panel, 48 h

Regarding `O=C1NC(=O)C(c2c[nH]c3ccccc23)=C1c1c[nH]c2ccccc12`, the GI50 is 9.25 µM in the test on ACHN renal; > 21.2 µM with DU-145 prostate; 9.33 µM in the test with HCT-116 colon; 5.56 µM with HS 578T breast; 5.31 µM in the test on LOX IMVI melanoma; 9.55 µM in the test with MOLT-4 leukemia. Besides, the GI50 in the test on NCI/ADR-RES ovarian is 12.8 µM; with SF-295 CNS it was 13.3 µM; in the test with SNB-75 CNS, 4.11 µM; in the test with U251 CNS it was 10.2 µM. The concentration for total growth inhibition (TGI) in the test with ACHN renal, in the test with DU-145 prostate, in the test on HCT-116 colon, in the test on HS 578T breast, in the test on LOX IMVI melanoma and in the test with MOLT-4 leukemia was > 25 µM in each case. Further, the concentration for total growth inhibition (TGI) in the test on NCI/ADR-RES ovarian, in the test on SF-295 CNS, in the test on SNB-75 CNS and with U251 CNS was > 25 µM in each case.

With `O=C(CCCc1ccc(N(CCCl)CCCl)cc1)NCc1ccccc1`, the GI50 with ACHN renal is 3.91 µM; in the test with DU-145 prostate it was 5.04 µM; in the test with HCT-116 colon, 4.57 µM; with HS 578T breast it was 15.6 µM; with LOX IMVI melanoma, 5.37 µM; in the test on MOLT-4 leukemia, 2.89 µM. The GI50 was 6.88 µM in the test with NCI/ADR-RES ovarian, 3.23 µM in the test with SF-295 CNS, 3.49 µM with SNB-75 CNS and 6.6 µM in the test on U251 CNS. The TGI in the test on ACHN renal is > 100 µM; in the test with DU-145 prostate, 56.6 µM; in the test with HCT-116 colon, 20.7 µM; in the test on HS 578T breast, > 100 µM; with LOX IMVI melanoma, 23.9 µM; with MOLT-4 leukemia it was 11.6 µM. Besides, the TGI with NCI/ADR-RES ovarian was determined as 60.7 µM; in the test on SF-295 CNS, 28.6 µM; in the test on SNB-75 CNS it was 33 µM; in the test with U251 CNS, 43.4 µM.

As for `Cc1c(Cl)cccc1C(=O)Nc1nc2c(s1)CN(C(=O)Nc1cccc(C(F)(F)F)c1)CC2`, the GI50 in the test with ACHN renal was 0.326 µM; with DU-145 prostate, 0.204 µM; in the test on HCT-116 colon, 0.212 µM; with HS 578T breast it was 0.163 µM; in the test with LOX IMVI melanoma, 0.226 µM; in the test on MOLT-4 leukemia, 0.291 µM. Further, the concentration for 50% growth inhibition (GI50) in the test with NCI/ADR-RES ovarian was 0.14 µM; with SF-295 CNS it was 0.125 µM; in the test on SNB-75 CNS, 0.104 µM; in the test on U251 CNS it was 0.242 µM. For the same compound, the TGI is > 50 µM in the test on DU-145 prostate; > 50 µM with HCT-116 colon; > 50 µM with HS 578T breast; 11 µM in the test with LOX IMVI melanoma; > 50 µM in the test on MOLT-4 leukemia; 1.01 µM in the test with NCI/ADR-RES ovarian. Also, the TGI is > 41.6 µM in the test with SF-295 CNS, 3.52 µM with SNB-75 CNS and > 50 µM with U251 CNS.

As to `Cc1ccc(N)c(S)c1`, the TGI is 37.9 µM in the test with ACHN renal; 29.1 µM in the test with DU-145 prostate; 46.8 µM in the test with HCT-116 colon; > 100 µM with HS 578T breast; 30 µM in the test on LOX IMVI melanoma; 47 µM in the test with MOLT-4 leukemia. For the same compound, the total growth inhibition concentration (TGI) in the test on NCI/ADR-RES ovarian worked out at 56.8 µM; in the test with SF-295 CNS, 43.4 µM; in the test on SNB-75 CNS, 40.5 µM; in the test with U251 CNS, 28.5 µM.

Regarding `C=C(CO)C(=O)OC1CC(=C)C2CC(O)C(C)C2C2OC(=O)C(=C)C12` (centres undefined), the total growth inhibition concentration (TGI) with ACHN renal is 34 µM; in the test with DU-145 prostate, > 100 µM; in the test with HCT-116 colon it was > 100 µM; with HS 578T breast, 47.5 µM; in the test on LOX IMVI melanoma it was > 100 µM; in the test on MOLT-4 leukemia, 64.6 µM. The total growth inhibition concentration (TGI) was > 100 µM in the test on NCI/ADR-RES ovarian, 38.8 µM in the test with SF-295 CNS, 45.6 µM with SNB-75 CNS and 64.2 µM in the test with U251 CNS.

As for `CCCCn1c(=O)[nH]c(N)c([C@@H]2c3c([nH]c(=O)n(CCCC)c3=O)Oc3ccc4ccccc4c32)c1=O`, the GI50 in the test with ACHN renal is 1.8 µM; in the test on DU-145 prostate, 1.8 µM; in the test with HCT-116 colon, 1.53 µM; in the test with HS 578T breast it was 4.55 µM; with LOX IMVI melanoma it was 1.29 µM; with MOLT-4 leukemia, 0.35 µM. Besides, the GI50 with NCI/ADR-RES ovarian was 2.82 µM; in the test with SF-295 CNS it was 5.83 µM; with SNB-75 CNS, 1.71 µM; with U251 CNS, 1.73 µM. In addition, the TGI worked out at 3.59 µM in the test with ACHN renal; 3.25 µM with DU-145 prostate; 3.02 µM in the test with HCT-116 colon; 37.1 µM in the test on HS 578T breast; 2.69 µM in the test on LOX IMVI melanoma; 1.74 µM in the test with MOLT-4 leukemia. For the same compound, the TGI in the test with NCI/ADR-RES ovarian was determined as 8.84 µM; in the test on SF-295 CNS, 19.2 µM; in the test on SNB-75 CNS it was 9.62 µM; with U251 CNS, 3.32 µM.

In the case of `C=CCc1cccc(C=O)c1O`, the GI50 in the test with ACHN renal was > 100 µM; in the test on DU-145 prostate, > 100 µM; in the test with HCT-116 colon it was 4.07 µM; in the test with HS 578T breast it was > 100 µM; in the test with LOX IMVI melanoma it was 17.3 µM; with MOLT-4 leukemia, 15.5 µM. The GI50 with NCI/ADR-RES ovarian was 20.4 µM; with SF-295 CNS, > 100 µM; with SNB-75 CNS, 10.6 µM; with U251 CNS, 6.63 µM. The concentration for total growth inhibition (TGI) was > 100 µM with ACHN renal; > 100 µM in the test with DU-145 prostate; > 100 µM in the test on HCT-116 colon; > 100 µM in the test on HS 578T breast; > 100 µM in the test with LOX IMVI melanoma; 55.1 µM in the test on MOLT-4 leukemia. Further, the TGI in the test with NCI/ADR-RES ovarian, with SF-295 CNS, with SNB-75 CNS and with U251 CNS was > 100 µM each time.

Turning to `CC(C)(C)CC(C)(C)c1ccc(OCCO)cc1`, the GI50 was 6.05 µg/mL in the test on ACHN renal; 9.51 µg/mL in the test on DU-145 prostate; 3.86 µg/mL in the test on HCT-116 colon; 4.26 µg/mL with HS 578T breast; 2.19 µg/mL in the test on LOX IMVI melanoma; 3.41 µg/mL in the test on MOLT-4 leukemia. The GI50 is 2.61 µg/mL in the test on NCI/ADR-RES ovarian, 1.07 µg/mL in the test with SF-295 CNS, 3.45 µg/mL in the test on SNB-75 CNS and 5.34 µg/mL in the test on U251 CNS. Further, the concentration for total growth inhibition (TGI) in the test with ACHN renal is > 75 µg/mL; in the test on DU-145 prostate, 20.6 µg/mL; in the test with HCT-116 colon, 14.5 µg/mL; in the test with HS 578T breast, 19.6 µg/mL; in the test on LOX IMVI melanoma it was 11.2 µg/mL; in the test with MOLT-4 leukemia, > 75 µg/mL. Also, the concentration for total growth inhibition (TGI) in the test with NCI/ADR-RES ovarian was 18.1 µg/mL; in the test with SF-295 CNS it was 8.56 µg/mL; with SNB-75 CNS it was 18.1 µg/mL; in the test with U251 CNS, 19.6 µg/mL.
